# Test results published in publication PMC5560747, “Computational-experimental approach to drug-target interaction mapping: A case study on kinase inhibitors” (PLoS Computational Biology, 2017).
# Experiments:
# IGF1R = IGF1R (Homo sapiens, UniProt P08069); parameters: method as in Gao et al. [42]; details: ref Gao et al. [42]; cited from earlier work
# InsR = InsR (Homo sapiens, UniProt P06213); parameters: method as in Gao et al. [42]; details: ref Gao et al. [42], cited from earlier work
# JNK1 = tested on: JNK1; parameters: method as in Gao et al. [42]; details: ref Gao et al. [42], cited from earlier work
# MELK = tested on: MELK; parameters: method as in Gao et al. [42]; details: ref Gao et al. [42], cited from earlier work
# PYK2 = PYK2 (Homo sapiens, UniProt Q14289); parameters: method as in Gao et al. [42]; details: ref Gao et al. [42], cited from earlier work
# MAPKAPK2 = tested on: MAPKAPK2; parameters: method as in Gao et al. [42]; details: ref Gao et al. [42], cited from earlier work
# SRPK1 = tested on: SRPK1; parameters: method as in Gao et al. [42]; details: ref Gao et al. [42], cited from earlier work
# TSSK1B = tested on: TSSK1B; parameters: method as in Gao et al. [42]; details: ref Gao et al. [42], cited from earlier work
# CDK2 = tested on: CDK2; parameters: method as in Gao et al. [42]; details: ref Gao et al. [42], cited from earlier work
# GSK3A = tested on: GSK3A; parameters: method as in Gao et al. [42]; details: ref Gao et al. [42], cited from earlier work
# Aurora A = biological target: T1, Aurora A (Homo sapiens, UniProt O14965); assay: ADP-Glo Kinase Assay, tivozanib off-target testing; type: biochemical; details: read-out: Experimental validation pIC50 (converted)
# T1 construct: purchased SignalChem A28-18G-10
# T1 sequence (O14965 1-403): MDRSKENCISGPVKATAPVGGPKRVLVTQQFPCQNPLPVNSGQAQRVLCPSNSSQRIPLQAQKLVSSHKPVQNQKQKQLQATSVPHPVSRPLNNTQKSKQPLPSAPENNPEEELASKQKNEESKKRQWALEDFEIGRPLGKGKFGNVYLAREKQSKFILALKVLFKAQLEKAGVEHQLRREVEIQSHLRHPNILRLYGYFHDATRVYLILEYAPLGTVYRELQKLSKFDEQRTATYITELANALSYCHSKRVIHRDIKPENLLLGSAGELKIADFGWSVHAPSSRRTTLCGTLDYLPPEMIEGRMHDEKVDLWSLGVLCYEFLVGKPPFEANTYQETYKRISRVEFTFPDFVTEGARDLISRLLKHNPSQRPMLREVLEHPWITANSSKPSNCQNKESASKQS
# Method: (§1) The kinase inhibitors were dissolved to 1X Kinase Buffer with 5% DMSO by transferring 200nL of the buffer using ECHO525 Liquid handler (Labcyte). […] The dissolved kinases and 2.5X kinase buffer controls were transferred at 400nL using ECHO525. […] The 2.5X ATP/substrate working stocks were transferred at 400nL using ECHO525.
# (§2) For the ADP detection, 1 μl ADP-Glo reagent was dispensed (Thermo Scientific Multidrop Combi nL). […] Next, 2 μl kinase detection reagent was dispensed with Thermo Scientific Multidrop Combi nL.
# (§3) Kinase assay, kinase dilution and substrate buffers were as indicated by the manufacturer (Promega). The assays were performed in the same way as with the kinases from the Kinase Selectivity Profiling System + ADP-Glo Assay kits (see previous section). All the assays were done in three individual experiments, each having three replicates.
# (§4) IC50 values from all the experiments were obtained with GraphPad Prism 7 (GraphPad Software, Inc. California, USA) using inhibitor vs. response—variable slope (four parameters) analysis. […] X-axis scale was set to log10.
# AKT1 = tested on: AKT1; parameters: method as in Gao et al. [42]; details: ref Gao et al. [42], cited from earlier work
# PAK4 = tested on: PAK4; parameters: method as in Gao et al. [42]; details: ref Gao et al. [42], cited from earlier work
# FYN A = FYN A (Homo sapiens, UniProt P06241); assay: ADP-Glo Kinase Assay, tivozanib off-target testing; type: biochemical; details: read-out: Experimental validation pIC50 (converted)
# Chain of FYN A (P06241 whole entry): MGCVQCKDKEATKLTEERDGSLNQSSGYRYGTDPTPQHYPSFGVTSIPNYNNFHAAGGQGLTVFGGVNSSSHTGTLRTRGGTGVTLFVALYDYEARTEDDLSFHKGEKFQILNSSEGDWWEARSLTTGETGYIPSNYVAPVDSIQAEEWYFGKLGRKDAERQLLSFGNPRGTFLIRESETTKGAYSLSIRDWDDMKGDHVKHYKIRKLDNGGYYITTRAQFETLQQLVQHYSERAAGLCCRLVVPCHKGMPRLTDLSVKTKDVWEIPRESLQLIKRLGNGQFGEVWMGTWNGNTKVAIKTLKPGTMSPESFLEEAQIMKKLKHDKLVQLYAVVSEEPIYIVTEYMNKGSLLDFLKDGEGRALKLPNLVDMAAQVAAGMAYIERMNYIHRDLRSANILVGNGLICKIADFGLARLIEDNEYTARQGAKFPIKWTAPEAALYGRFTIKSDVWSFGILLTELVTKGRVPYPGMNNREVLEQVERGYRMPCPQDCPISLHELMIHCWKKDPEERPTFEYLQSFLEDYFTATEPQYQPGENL
# Method: as §1, §2, §3, §4
# Chain of PYK2 (Q14289 whole entry): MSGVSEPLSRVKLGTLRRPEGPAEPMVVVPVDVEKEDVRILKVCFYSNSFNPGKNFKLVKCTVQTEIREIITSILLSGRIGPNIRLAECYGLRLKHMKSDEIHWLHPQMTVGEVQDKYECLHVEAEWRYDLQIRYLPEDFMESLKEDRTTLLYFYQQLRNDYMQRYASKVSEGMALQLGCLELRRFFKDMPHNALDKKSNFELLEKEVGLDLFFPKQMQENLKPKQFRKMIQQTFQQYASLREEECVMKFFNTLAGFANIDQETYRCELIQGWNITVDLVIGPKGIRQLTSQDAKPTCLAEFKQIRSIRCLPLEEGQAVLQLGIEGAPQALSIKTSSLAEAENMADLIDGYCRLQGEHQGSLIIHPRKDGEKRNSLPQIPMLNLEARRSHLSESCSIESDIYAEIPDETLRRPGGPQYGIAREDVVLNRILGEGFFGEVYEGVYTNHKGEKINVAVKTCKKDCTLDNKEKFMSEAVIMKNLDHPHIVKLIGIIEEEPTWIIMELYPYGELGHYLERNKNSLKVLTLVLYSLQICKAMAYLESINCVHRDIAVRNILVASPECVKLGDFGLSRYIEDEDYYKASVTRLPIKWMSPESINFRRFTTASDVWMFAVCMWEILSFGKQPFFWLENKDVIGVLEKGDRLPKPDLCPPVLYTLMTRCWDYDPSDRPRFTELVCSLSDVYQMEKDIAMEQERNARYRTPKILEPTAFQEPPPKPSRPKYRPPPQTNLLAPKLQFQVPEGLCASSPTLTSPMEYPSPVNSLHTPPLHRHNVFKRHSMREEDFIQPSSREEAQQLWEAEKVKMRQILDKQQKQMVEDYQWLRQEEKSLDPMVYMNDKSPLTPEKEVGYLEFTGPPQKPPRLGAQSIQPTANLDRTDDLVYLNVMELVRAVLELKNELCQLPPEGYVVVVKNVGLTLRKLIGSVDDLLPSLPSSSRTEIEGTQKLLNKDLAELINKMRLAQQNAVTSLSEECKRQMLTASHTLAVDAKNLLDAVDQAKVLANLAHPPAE
# Chain of InsR (P06213 28-1382): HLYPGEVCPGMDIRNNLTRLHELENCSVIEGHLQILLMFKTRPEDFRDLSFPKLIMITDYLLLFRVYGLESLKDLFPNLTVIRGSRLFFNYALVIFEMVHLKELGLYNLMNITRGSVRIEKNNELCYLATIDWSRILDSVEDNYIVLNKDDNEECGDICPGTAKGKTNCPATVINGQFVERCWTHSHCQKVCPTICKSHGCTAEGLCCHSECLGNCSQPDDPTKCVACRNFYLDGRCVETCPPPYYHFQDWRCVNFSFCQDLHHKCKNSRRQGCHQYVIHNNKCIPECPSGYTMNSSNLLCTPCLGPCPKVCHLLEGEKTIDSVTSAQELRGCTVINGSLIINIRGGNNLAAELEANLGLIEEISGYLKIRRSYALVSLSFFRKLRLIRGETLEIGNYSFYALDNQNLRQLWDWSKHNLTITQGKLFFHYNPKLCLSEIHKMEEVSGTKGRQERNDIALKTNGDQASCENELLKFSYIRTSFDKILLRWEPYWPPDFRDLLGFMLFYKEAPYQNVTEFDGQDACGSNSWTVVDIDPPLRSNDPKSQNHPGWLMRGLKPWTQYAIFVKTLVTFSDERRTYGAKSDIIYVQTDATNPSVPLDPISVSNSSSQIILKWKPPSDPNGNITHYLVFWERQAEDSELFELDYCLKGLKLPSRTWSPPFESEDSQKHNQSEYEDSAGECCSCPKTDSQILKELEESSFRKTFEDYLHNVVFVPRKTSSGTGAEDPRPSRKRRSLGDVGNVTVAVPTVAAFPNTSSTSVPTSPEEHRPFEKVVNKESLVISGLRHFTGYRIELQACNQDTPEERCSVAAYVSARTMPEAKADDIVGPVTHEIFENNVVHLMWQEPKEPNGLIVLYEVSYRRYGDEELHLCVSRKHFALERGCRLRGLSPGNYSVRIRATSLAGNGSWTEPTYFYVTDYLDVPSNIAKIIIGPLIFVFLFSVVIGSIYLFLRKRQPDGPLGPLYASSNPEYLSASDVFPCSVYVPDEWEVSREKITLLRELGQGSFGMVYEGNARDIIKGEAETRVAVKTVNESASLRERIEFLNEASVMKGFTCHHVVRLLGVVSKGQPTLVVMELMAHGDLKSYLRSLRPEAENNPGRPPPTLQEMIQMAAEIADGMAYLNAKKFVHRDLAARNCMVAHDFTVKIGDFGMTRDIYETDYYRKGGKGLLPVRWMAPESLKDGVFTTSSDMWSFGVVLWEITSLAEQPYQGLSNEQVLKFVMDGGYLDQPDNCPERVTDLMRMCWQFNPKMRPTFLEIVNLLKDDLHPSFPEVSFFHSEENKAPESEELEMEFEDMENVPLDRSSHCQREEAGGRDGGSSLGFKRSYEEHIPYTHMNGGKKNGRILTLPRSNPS
# Chain of IGF1R (P08069 31-1367): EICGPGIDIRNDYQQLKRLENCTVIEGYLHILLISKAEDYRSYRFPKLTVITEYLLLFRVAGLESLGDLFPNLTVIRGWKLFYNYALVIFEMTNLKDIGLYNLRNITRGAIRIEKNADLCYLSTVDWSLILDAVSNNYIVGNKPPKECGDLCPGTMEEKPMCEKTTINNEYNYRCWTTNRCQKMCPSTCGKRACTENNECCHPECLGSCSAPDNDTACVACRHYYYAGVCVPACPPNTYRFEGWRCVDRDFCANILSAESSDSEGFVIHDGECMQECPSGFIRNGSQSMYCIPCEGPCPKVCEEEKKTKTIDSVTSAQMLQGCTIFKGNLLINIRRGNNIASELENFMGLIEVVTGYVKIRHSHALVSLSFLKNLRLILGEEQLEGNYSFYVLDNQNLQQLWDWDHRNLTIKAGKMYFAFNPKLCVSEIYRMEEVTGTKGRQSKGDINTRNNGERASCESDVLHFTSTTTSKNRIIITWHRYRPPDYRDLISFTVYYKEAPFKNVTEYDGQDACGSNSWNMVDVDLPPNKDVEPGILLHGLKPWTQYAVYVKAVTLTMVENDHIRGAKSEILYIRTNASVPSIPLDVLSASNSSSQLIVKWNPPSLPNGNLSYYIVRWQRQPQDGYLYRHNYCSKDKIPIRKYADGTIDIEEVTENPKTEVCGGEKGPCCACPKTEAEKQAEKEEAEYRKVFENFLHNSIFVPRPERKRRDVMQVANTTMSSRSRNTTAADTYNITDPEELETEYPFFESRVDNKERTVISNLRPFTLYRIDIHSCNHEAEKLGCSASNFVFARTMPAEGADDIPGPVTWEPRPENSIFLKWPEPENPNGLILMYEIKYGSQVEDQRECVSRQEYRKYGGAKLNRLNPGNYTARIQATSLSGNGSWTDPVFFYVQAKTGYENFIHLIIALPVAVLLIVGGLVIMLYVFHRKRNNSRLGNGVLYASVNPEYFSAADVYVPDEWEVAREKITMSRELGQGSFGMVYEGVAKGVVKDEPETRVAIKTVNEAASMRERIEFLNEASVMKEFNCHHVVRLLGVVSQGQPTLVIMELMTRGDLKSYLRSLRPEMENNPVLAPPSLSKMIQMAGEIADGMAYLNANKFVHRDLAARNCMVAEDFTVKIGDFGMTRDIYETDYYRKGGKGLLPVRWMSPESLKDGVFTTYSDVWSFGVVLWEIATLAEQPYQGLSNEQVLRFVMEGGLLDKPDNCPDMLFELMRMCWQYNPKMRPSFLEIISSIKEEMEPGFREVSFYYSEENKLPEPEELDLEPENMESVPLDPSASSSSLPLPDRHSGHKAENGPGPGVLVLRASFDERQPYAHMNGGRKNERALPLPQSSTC
compound,measurement,setting,value
"COc1cc2nccc(Oc3ccc(NC(=O)Nc4cc(C)on4)c(Cl)c3)c2cc1OC [TIVOZANIB, Tivozanib]",Gao et al. % of activity remaining at 1 µM,IGF1R,135%
same,Gao et al. % of activity remaining at 1 µM,InsR; 1 µM,102%
same,Gao et al. % of activity remaining at 10 µM,InsR; 10 µM,29%
same,Gao et al. % of activity remaining at 1 µM,JNK1; 1 µM,120%
same,Gao et al. % of activity remaining at 10 µM,JNK1; 10 µM,109%
same,Gao et al. % of activity remaining at 1 µM,MELK; 1 µM,91%
same,Gao et al. % of activity remaining at 10 µM,MELK; 10 µM,80%
same,Gao et al. % of activity remaining at 1 µM,PYK2; 1 µM,34%
same,Gao et al. % of activity remaining at 10 µM,PYK2; 10 µM,8%
same,Gao et al. % of activity remaining at 1 µM,MAPKAPK2; 1 µM,85%
same,Gao et al. % of activity remaining at 10 µM,MAPKAPK2; 10 µM,100%
same,Gao et al. % of activity remaining at 1 µM,SRPK1; 1 µM,98%
same,Gao et al. % of activity remaining at 10 µM,SRPK1; 10 µM,90%
same,Gao et al. % of activity remaining at 1 µM,TSSK1B; 1 µM,94%
same,Gao et al. % of activity remaining at 10 µM,TSSK1B; 10 µM,82%
same,Gao et al. % of activity remaining at 1 µM,CDK2; 1 µM,98%
same,Gao et al. % of activity remaining at 10 µM,CDK2; 10 µM,86%
same,Gao et al. % of activity remaining at 1 µM,GSK3A; 1 µM,107%
same,Gao et al. % of activity remaining at 10 µM,GSK3A; 10 µM,123%
same,IC50,Aurora A,> 12.5 µM
same,Gao et al. % of activity remaining at 1 µM,AKT1; 1 µM,97%
same,Gao et al. % of activity remaining at 10 µM,AKT1; 10 µM,101%
same,Gao et al. % of activity remaining at 1 µM,PAK4; 1 µM,99%
same,Gao et al. % of activity remaining at 10 µM,PAK4; 10 µM,92%
same,IC50,FYN A,398 nM
